Experimental data from US7956041B2, “Prophylactic and therapeutic agent of diabetes mellitus” (Ajinomoto Co., Inc., priority 2002, dated 2011).

What was measured:
[1] = tested on: Renal brush border membrane; assay: Test Example 1A: inhibitory action of 14C-D-glucose uptake; format: biochemical; conditions: rat renal brush border membrane, 37° C., 30 minutes preincubation
Description: Test compounds were dissolved in 100 mM mannitol-10 mM HEPES/Tris, pH 7.4 to prepare solutions at various concentrations.
Renal brush border membrane was prepared from a rat kidney, to which a solution of a test compound was added for incubation at 37° C. for 30 minutes. Then, ^14C-D-glucose was added for incubation for one minute. A solution containing 1 mM phlorizin was used to terminate the glucose uptake reaction. The radioactivity ^14C of ^14C-D-glucose incorporated in the renal brush border membrane was counted with a liquid scintillation counter. The glucose uptake independent on sodium was reduced from the glucose uptake in a control group or a test group, to calculate the inhibition intensity.

[2] = tested on: glucose-loaded rats (Wistar rats); assay: Example I: blood glucose time course after oral glucose loading in rats; format: in vivo, rat; conditions: glucose 1 g/kg p.o., FIG. 2
Description: Wistar rats (age of 7 weeks; male) were divided into groups with matched body weights. After 17-hour starvation, glucose was orally given at 1 g/kg to the animals. Immediately after the administration, the inhibitor A of renal glucose reabsorption or the inhibitor B of renal glucose reabsorption (A at 30 mg/kg or 60 mg/kg; B at 30 mg/kg or 80 mg/kg) or glibenclamide (1 mg/kg or 2 mg/kg) or nateglinide (50 mg/kg or 80 mg/kg) was orally given. Additionally, a group on the combined use of both of an inhibitor of renal glucose reabsorption and a hypoglycemic agent was also prepared. A vehicle was orally given to a control group after glucose administration.
Blood glucose was measured in a time course.

[3] = tested on: Type 2 diabetes model db/db mice; assay: Example IV: nateglinide load test after 25 days of dosing in db/db mice; format: in vivo, mouse; conditions: db/db mice after long-term inhibitor B 80 mg/kg twice daily; compared with vehicle-dosed and nateglinide-dosed groups
Description: Type 2 diabetes model db/db mice (age 6 weeks) were fed and kept with a feed twice daily over one hour starting 9 am and one hour starting 3 pm, for one week. Then, the mice were divided into groups with matched blood glucose levels and body weights. Subsequently, the inhibitor B of renal glucose reabsorption at 80 mg/kg or nateglinide at 80 mg/kg was orally given, immediately before feeding twice daily. Only a vehicle was orally given immediately before feeding twice daily to the animals of a control group. […] Blood glucose levels were measured before and after the administration, to examine whether or not the hypoglycemic action of nateglinide could be observed (nateglinide load test).

Male Wistar rats = assay: Test Example 1B: excretion action of urine sugar in rat; format: in vivo; conditions: oral administration, Dose 10 mg/kg, 24 hours
Description: Male Wistar rats aged 5 weeks (purchased from Charles River Japan, Inc.) were acclimatized in metabolic cages for one week, for use at this experiment. The test compounds suspended in olive oil were prepared into solutions to a dose of 5 ml per 1 kg rat body weight. After the rats were starved for 4 hours, the test compounds were orally given at 10, 30 and 100 mg/kg to the rats at 11 am. Immediately after dosing until 24 hours later, urine was collected. The volume of urine was measured. Then, urine glucose concentration was assayed by glucose oxidase method, to calculate the glucose excretion into urine per individual per day. As a positive control, 3-(5-benzo[b]furanyl)-2′-(6-o-methoxycarbonyl-β-D-glucopyranosyloxy)-6′-hydroxy-4′-methylpropiophenone [under a different name of 3-(benzo[b]furan-5-yl)-2′,6′-dihydroxy-4′-methylpropiophenone 2′-o-(6-o-methoxycarbonyl-β-D-glucopyranoside)] was used.

CSc1ccc(Cc2c(O[C@@H]3O[C@H](CO)[C@@H](O)[C@H](O)[C@H]3O)n[nH]c2C(F)(F)F)cc1 [Production Example 1-A, 4-((4-methylthiophenyl)methyl)-5-(trifluoromethyl)-1H-pyrazole-3-o-β-D-glucopyranoside]
Inhibition intensity ([1]; concentration of test compound 10 μM): 84% (10 μM)

CCc1ccc(Cc2c(O[C@@H]3O[C@H](C(=O)O)[C@@H](O)[C@H](O)[C@H]3O)n[nH]c2C(F)(F)F)cc1 [Production Example 2-A, 4-((4-ethylphenyl)methyl)-5-(trifluoromethyl)-1H-pyrazol-3-yl-β-D-glucopyranoside uronic acid]
Inhibition intensity ([1]; concentration of test compound 100 μM): 30% (100 μM)

COC(=O)OC[C@H]1O[C@@H](Oc2cc(C)cc(O)c2C(=O)CCc2ccc3occc3c2)[C@H](O)[C@@H](O)[C@@H]1O [3-(5-benzo[b]furanyl)-2′-(6-o-methoxycarbonyl-β-D-glucopyranosyloxy)-6′-hydroxy-4′-methylpropiophenone]
Blood glucose 180 minutes after glucose loading and thereafter ([2]; inhibitor B 30 mg/kg alone or with nateglinide 50 mg/kg p.o., vs vehicle): lower than that in the vehicle-dosed group | Pattern of glycemic suppression at increased dose ([2]; nateglinide 80 mg/kg, inhibitor B 80 mg/kg): This pattern of glycemic suppression was also observed in the group with the increase of the dose | Hyperglycemia 30 minutes after loading with glucose and nateglinide (in words) [3]: nateglinide greatly suppressed hyperglycemia due to glucose loading | Excreted urine sugar (Male Wistar rats): 2 mg
